ChEMBL document CHEMBL2169878 (J Med Chem, 2012)
Activity calls are given as the source filed them. The rule behind the calls is not given here.

How the values were obtained:
[1] = tested on: Plasma; assay: Drug uptake in CD1 albino mouse plasma at 50 mg/kg, po up to 48 hrs; assay type: ADME, organism-based; parameters: dose 50 mg/kg, route oral; details: in vivo
[2] = Apparent volume of distribution in CD1 albino mouse at 50 mg/kg, po; assay type: ADME, organism-based; parameters: dose 50 mg/kg, route oral; details: in vivo, read-out: Vc/F
[3] = tested on: Liver; assay: Drug uptake in CD1 albino mouse liver at 50 mg/kg, po at 2 to 6 hrs; assay type: ADME, organism-based; parameters: dose 50 mg/kg, route oral; details: in vivo
[4] = tested on: Liver; assay: Drug uptake in CD1 albino mouse liver at 50 mg/kg, po at 6 to 48 hrs; assay type: ADME, organism-based; parameters: dose 50 mg/kg, route oral; details: in vivo
[5] = tested on: Heart; assay: Cardiotoxicity against Sprague-Dawley rat Langendorff perfused heart assessed as heart rate at 0.1 uM by electrophysiological analysis (reference value: 236.68 7.83 bpm); assay type: toxicity, tissue-based
[6] = tested on: Heart; assay: Cardiotoxicity against Sprague-Dawley rat Langendorff perfused heart assessed as heart rate at 1 uM by electrophysiological analysis (reference value: 236.68 7.83 bpm); assay type: toxicity, tissue-based
[7] = tested on: Heart; assay: Cardiotoxicity against Sprague-Dawley rat Langendorff perfused heart assessed as heart rate at 10 uM by electrophysiological analysis (reference value: 236.68 7.83 bpm); assay type: toxicity, tissue-based
[8] = tested on: Salmonella typhimurium; assay: Mutagenicity against Salmonella typhimurium TA98 assessed as revertants at 6 uM incubated for 90 mins followed by drug washout measured after 2 days relative to positive control; assay type: toxicity, organism-based; details: salmonella enterica subsp. enterica serovar typhimurium, 1.5 h
[9] = tested on: Salmonella typhimurium; assay: Mutagenicity against Salmonella typhimurium TA98 assessed as revertants at 48 uM incubated for 90 mins followed by drug washout measured after 2 days relative to positive control; assay type: toxicity, organism-based; details: salmonella enterica subsp. enterica serovar typhimurium, 1.5 h
[10] = tested on: Salmonella typhimurium; assay: Mutagenicity against Salmonella typhimurium TA100 assessed as revertants at 1.5 uM incubated for 90 mins followed by drug washout measured after 2 days relative to positive control; assay type: toxicity, organism-based; details: salmonella enterica subsp. enterica serovar typhimurium, 1.5 h
[11] = tested on: Salmonella typhimurium; assay: Mutagenicity against Salmonella typhimurium TA100 assessed as revertants at 3 uM incubated for 90 mins followed by drug washout measured after 2 days relative to positive control; assay type: toxicity, organism-based; details: salmonella enterica subsp. enterica serovar typhimurium, 1.5 h
[12] = tested on: Salmonella typhimurium; assay: Mutagenicity against Salmonella typhimurium TA100 assessed as revertants at 6 uM incubated for 90 mins followed by drug washout measured after 2 days relative to positive control; assay type: toxicity, organism-based; details: salmonella enterica subsp. enterica serovar typhimurium, 1.5 h
[13] = tested on: Salmonella typhimurium; assay: Mutagenicity against Salmonella typhimurium TA100 assessed as revertants at 12 uM incubated for 90 mins followed by drug washout measured after 2 days relative to positive control; assay type: toxicity, organism-based; details: salmonella enterica subsp. enterica serovar typhimurium
[14] = tested on: Salmonella typhimurium; assay: Mutagenicity against Salmonella typhimurium TA100 assessed as revertants at 48 uM incubated for 90 mins followed by drug washout measured after 2 days relative to positive control; assay type: toxicity, organism-based; details: salmonella enterica subsp. enterica serovar typhimurium
[15] = tested on: Heart; assay: Cardiotoxicity against Sprague-Dawley rat Langendorff perfused heart assessed as QTc time interval at 1 uM by electrophysiological analysis (reference value: 145.78 10.53 ms); assay type: toxicity, tissue-based
[16] = tested on: Heart; assay: Cardiotoxicity against Sprague-Dawley rat Langendorff perfused heart assessed as QTc time interval at 10 uM by electrophysiological analysis (reference value: 145.78 10.53 ms); assay type: toxicity, tissue-based
[17] = tested on: Heart; assay: Cardiotoxicity against Sprague-Dawley rat Langendorff perfused heart assessed as QT time interval at 30 uM by electrophysiological analysis (reference value: 73.01 4.52 ms); assay type: toxicity, tissue-based
[18] = tested on: Heart; assay: Cardiotoxicity against Sprague-Dawley rat Langendorff perfused heart assessed as QT time interval at 1 uM by electrophysiological analysis (reference value: 73.01 4.52 ms); assay type: toxicity, tissue-based
[19] = tested on: Heart; assay: Cardiotoxicity against Sprague-Dawley rat Langendorff perfused heart assessed as intraventricular conduction time at 10 uM by electrophysiological analysis (reference value: 13.92 0.42 ms); assay type: toxicity, tissue-based
[20] = tested on: Heart; assay: Cardiotoxicity against Sprague-Dawley rat Langendorff perfused heart assessed as intraventricular conduction time at 1 uM by electrophysiological analysis (reference value: 13.92 0.42 ms); assay type: toxicity, tissue-based
[21] = tested on: Heart; assay: Cardiotoxicity against Sprague-Dawley rat Langendorff perfused heart assessed as intraventricular conduction time at 0.1 uM by electrophysiological analysis (reference value: 13.92 0.42 ms); assay type: toxicity, tissue-based
[22] = tested on: Heart; assay: Cardiotoxicity against Sprague-Dawley rat Langendorff perfused heart assessed as atrioventricular conduction time at 10 uM by electrophysiological analysis (reference value: 42.67 2.29 ms); assay type: toxicity, tissue-based
[23] = tested on: Heart; assay: Cardiotoxicity against Sprague-Dawley rat Langendorff perfused heart assessed as atrioventricular conduction time at 0.1 uM by electrophysiological analysis (reference value: 42.67 2.29 ms); assay type: toxicity, tissue-based
[24] = tested on: Plasmodium falciparum; assay: Antiplasmodial activity against chloroquine-resistant Plasmodium falciparum W2 infected in human RBC after 72 hrs by parasite lactate dehydrogenase assay; assay type: functional, organism-based; details: W2, 72 h
[25] = tested on: Plasmodium falciparum; assay: Antiplasmodial activity against chloroquine-resistant Plasmodium falciparum K1 infected in human erythrocytes assessed as inhibition of [3H]hypoxanthine incorporation incubated for 48 hrs prior to [3H]hypoxanthine addition measured after 48 hrs by liquid scintillation counting; assay type: functional, organism-based
[26] = tested on: Plasmodium falciparum; assay: Resistance ratio of IC50 for chloroquine-resistant Plasmodium falciparum K1 to IC50 for chloroquine-sensitive Plasmodium falciparum NF54; assay type: functional
[27] = tested on: Plasmodium berghei; assay: Antimalarial activity against Plasmodium berghei ANKA expressing GFP infected in mouse assessed as reduction in parasitemia at 100 mg/kg, po administered 24 hrs post-infection measured 48 hrs post-dosing by flow cytometric analysis; assay type: functional; parameters: scale not given: the % may be the effect or the level left
[28] = tested on: Plasmodium berghei; assay: Antimalarial activity against Plasmodium berghei ANKA expressing GFP infected in mouse assessed as reduction in parasitemia at 30 mg/kg, po administered 24 hrs post-infection measured 48 hrs post-dosing by flow cytometric analysis; assay type: functional; parameters: scale not given: the % may be the effect or the level left
[29] = tested on: Plasmodium berghei; assay: Antimalarial activity against Plasmodium berghei ANKA expressing GFP infected in mouse assessed as reduction in parasitemia at 50 mg/kg, po administered QD for 3 days measured 24 hrs post-final dosing by flow cytometric analysis; assay type: functional; parameters: scale not given: the % may be the effect or the level left
[30] = tested on: Plasmodium berghei; assay: Antimalarial activity against Plasmodium berghei ANKA expressing GFP infected in mouse assessed as reduction in parasitemia at 30 mg/kg, po administered QD for 3 days measured 24 hrs post-final dosing by flow cytometric analysis; assay type: functional; parameters: scale not given: the % may be the effect or the level left
[31] = tested on: Plasmodium berghei; assay: Antimalarial activity against Plasmodium berghei ANKA expressing GFP infected in mouse assessed as mean survival days at 100 mg/kg, po administered 24 hrs post-infection (reference value: 6 to 7 days); assay type: functional
[32] = tested on: Plasmodium berghei; assay: Antimalarial activity against Plasmodium berghei ANKA expressing GFP infected in mouse assessed as mean survival days at 50 mg/kg, po administered QD for 3 days (reference value: 6 to 7 days); assay type: functional
[33] = tested on: Plasmodium berghei; assay: Antimalarial activity against Plasmodium berghei ANKA expressing GFP infected in mouse assessed as mean survival days at 30 mg/kg, po administered at 6,[…],[…] and 72 hrs post-infection (reference value: 6 to 7 days); assay type: functional
[34] = tested on: Plasmodium berghei; assay: Antimalarial activity against Plasmodium berghei ANKA expressing GFP infected in mouse assessed as cure from infection at 100 mg/kg, po administered 24 hrs post-infection measured on day 30; assay type: functional, organism-based; parameters: dose 100 mg/kg
[35] = tested on: Plasmodium berghei; assay: Antimalarial activity against Plasmodium berghei ANKA expressing GFP infected in mouse assessed as cure from infection at 30 mg/kg, po administered 24 hrs post-infection measured on day 30; assay type: functional, organism-based; parameters: dose 30 mg/kg
[36] = molecular target: Chloroquine resistance transporter (Plasmodium falciparum, UniProt Q9N623); assay: Inhibition of chloroquine-resistant Plasmodium falciparum Dd2 CRT expressed in Xenopus laevis oocyte assessed as inhibition of [3H]chloroquine uptake measured from 1 to 2 hrs
Sequence of Chloroquine resistance transporter (Q9N623 whole entry, looked up): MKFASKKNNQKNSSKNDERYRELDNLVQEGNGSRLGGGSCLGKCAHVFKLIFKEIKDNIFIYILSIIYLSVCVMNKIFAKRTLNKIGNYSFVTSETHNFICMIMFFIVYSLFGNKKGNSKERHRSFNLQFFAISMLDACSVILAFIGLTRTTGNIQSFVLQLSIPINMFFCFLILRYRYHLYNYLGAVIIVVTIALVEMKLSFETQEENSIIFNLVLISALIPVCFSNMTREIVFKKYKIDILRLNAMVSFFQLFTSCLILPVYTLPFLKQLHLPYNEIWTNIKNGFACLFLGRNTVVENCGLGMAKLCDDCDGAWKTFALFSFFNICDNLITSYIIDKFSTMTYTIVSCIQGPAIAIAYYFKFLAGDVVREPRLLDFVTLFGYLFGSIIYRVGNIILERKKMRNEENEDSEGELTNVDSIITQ

[37] = Cytotoxicity against mouse NIH3T3 cells after 24 hrs by neutral red dye uptake assay; assay type: cell-based; details: read-out: TC50

Clc1ccc(C(Nc2ccnc3cc(Cl)ccc23)c2ccc(CN3CCNCC3)cc2)cc1 (racemic)
Drug uptake [1]: Active | Vd/F [2]: 153 L/kg | Drug uptake [3]: Active | Drug uptake [4]: Not Active | Activity [5]: 235.08 bpm | Activity [6]: 233.54 bpm | Activity [7]: 216.05 bpm | Activity [8]: 6% | Activity [9]: 4% | Activity [10]: 19% | Activity [11]: 22% | Activity [12]: 13% | Activity [13]: 17% | Activity [14]: 28% | Time [15]: 151.17 ms | Time [16]: 177.33 ms | Time [17]: 94.33 ms | Time [18]: 76.5 ms | Time [19]: 17 ms | Time [20]: 14.18 ms | Time [21]: 14 ms | Time [22]: 50.56 ms | Time [23]: 42.53 ms | IC50 [24]: 0.058 µM | IC50 [25]: 0.022 µM | Ratio IC50 [26]: 1.3 | Activity [27]: 99.5% | Activity [28]: 99.7% | Activity [29]: 99.8% | Activity [30]: 99.8% | MSD [31]: 28.8 days | MSD [32]: 29.6 days | MSD [33]: 30 days | Activity [34]: inactive | Activity [35]: inactive | IC50 [36]: 10.3 µM | CC50 at 24 h [37]: 1.8 µM
